Laboratory results from US20250051333A1, “POLYMORPH OF KRAS INHIBITOR, PREPARATION METHOD THEREFOR, AND USE THEREOF” (GENFLEET THERAPEUTICS (SHANGHAI) INC., priority 2021, published 2025).

Tests used:
Assay type in all cases: physicochemical
[1] = Hygroscopicity by DVS testing
Method: The dynamic vapor sorption (DVS) analysis may be conducted on the DVS Intrinsic system from Surface Measurement Systems (SMS). Temperature: 25° C.: sample amount: 20-40 mg; protective gas and flow rate: N2, 200 mL/min; dm/dt: 0.002%/min; minimum dm/dt equilibration time: 10 min, maximum equilibration time. 180 min; RH range: room humidity to 95% RH to 0% RH to 95% RH: 0% RH to 95% RH to 0% RH; RH gradient: 10% RH (0% RH to 90% RH & 90% RH to 0% RH): 5% RH (90% RH to 95% RH & 95% RH to 90% RH).

[2] = Variable-temperature XRPD / heating test of crystalline forms; conditions: heating to 150° C. and cooling to 30° C. in a N2 atmosphere
Method: The X-ray powder diffraction (XRPD) analysis may be conducted on the X'Pert3 X-ray powder diffraction analyzer with the following parameters: Cu, kα; Kα1 (Å): 1.540598: Kα2 (Å): 1.544426; Kα2/Kα1 intensity ratio: 0.50; voltage: 45 kV; current: 40 mA; divergent slit: ⅛°; scan mode: continuous: scanning range: 3° to 40°: scanning step: 0.0263°; time of step: 46.665 s: scanning time: 5 min 03 s. Alternatively, the analysis may be conducted on the PANalytical Empyrean X-ray powder diffraction analyzer with the following parameters: Cu, kα; Kα1 (Å): 1.540598: Kα2 (Å); 1.544426: Kα2/Kα1 intensity ratio: 0.50: voltage: 45 kV; current; 40 mA: divergent slit: automatic; scan mode: continuous; scanning range: 3° to 40°; scanning step: 0.0167°; time of step: 17.780 s/33.020 s; scanning time: 5 min 32 s/10 min 13 s.

[3] = Humidity induction test: standing at various humidities at room temperature; conditions: for Polymorphic transition or not: room temperature, open
Text: Some of the crystalline forms prepared in the above examples were investigated in a humidity induction test at room temperature.

[4] = Solid stability, 60° C. sealed 24 hours and 40° C./75% RH open one week (XRPD, HPLC, KF); conditions: for Purity (%): HPLC; for Water content (%): KF test; for Polymorphic transition or not: XRPD; for Relative to the initial (%): purity
Text: Proton nuclear magnetic resonance may be conducted on the Bruker 400M nuclear magnetic resonance spectrometer, with deuterated chloroform, deuterated methanol, or dimethyl sulfoxide-d6 as the solvent. Water titration (KF test) may be conducted on the Metrohm 870 KF Titrinoplus from Sigma-Aldrich, with ultrapure water for calibration and Hydranal® R-Composite 5 as the titration reagent. HPLC-grade methanol was used to dissolve the solid sample.
High-performance liquid chromatography (HPLC) may be conducted on the Agilent 1260 high-performance liquid chromatograph system (Waters Xbridge C18, 150×4.6 mm, 5 μm column).
In order to further evaluate the solid stability of the crystalline forms of the present invention, appropriate amounts of samples were for at 60° C. in a sealed condition for 24 hours and at 40° C./75% RH open to the atmosphere for a week.

[5] = Solid stability, 60° C./75% RH open, physical stability by XRPD; conditions: for Crystalline form: XRPD
Method: Appropriate amounts of samples were weighed and let stand at 60° C./75% RH open to the atmosphere for 7 days, 14 days, and 1 month. Samples of different standing times were evaluated for the physical stability of the crystalline forms by XRPD.

[6] = 60° C. sealed 24 hours and 40° C./75% RH open one week

## C=CC(=O)N1CCN2c3c(c(=O)n(-c4c(C)ccnc4C(C)C)c4nc(-c5c(O)cccc5F)c(Cl)cc34)N(C)C(=O)[C@H]2C1 [Crystalline form 3, (4aR,8R)-3-acryloyl-11-chloro-10-(2-fluoro-6-hydroxyphenyl)-8-(2-isopropyl-4-methylpyridin-3-yl)-6-methyl-2,3,4,4a,6,8-hexahydro-1H-pyrazino[1′,2′:4,5]pyrazino[2,3-c][1,8]naphthyridine-5,7-dione]
[1]; 25° C./80% RH
  Weight gain (DVS): less than 0.9%
[1]; DVS at 25° C., 0% RH to 95% RH
  Hygroscopicity (in words): almost no hygroscopicity
[1]; after DVS testing
  Crystalline form after DVS testing (XRPD): did not change
[2]
  Crystalline form change on heating (variable-temperature XRPD): no crystalline form changes were observed
[3]; 22.5% RH (saturated potassium acetate), 10 days
  Polymorphic transition or not: No
[3]; 22.5% RH (saturated potassium acetate), 23 days
  Polymorphic transition or not: No
[3]; 22.5% RH (saturated potassium acetate), 30 days
  Polymorphic transition or not: No
[3]; 43.2% RH (saturated potassium carbonate), 10 days
  Polymorphic transition or not: No
[3]; 43.2% RH (saturated potassium carbonate), 23 days
  Polymorphic transition or not: No
[3]; 43.2% RH (saturated potassium carbonate), 30 days
  Polymorphic transition or not: No
[3]; 60% RH (stability chamber), 10 days
  Polymorphic transition or not: No
[3]; 60% RH (stability chamber), 23 days
  Polymorphic transition or not: No
[3]; 60% RH (stability chamber), 30 days
  Polymorphic transition or not: No
[3]; 84.2% RH (saturated potassium chloride), 10 days
  Polymorphic transition or not: No
[3]; 84.2% RH (saturated potassium chloride), 23 days
  Polymorphic transition or not: No
[3]; 84.2% RH (saturated potassium chloride), 30 days
  Polymorphic transition or not: No
[3]; 30 days open to the atmosphere at room temperature at 22.5% RH to 84.2% RH
  Polymorphic transition: neither crystalline form 6 (Example 12) nor crystalline form 3 (Example 3) exhibited polymorphic transition
[4]; 40° C./75% RH/open, 1 week
  Purity (%): 99.27%
  Water content (%): 1.3%
  Polymorphic transition or not: No
  Relative to the initial (%): 99.94%
[4]; [6]
  HPLC purity change: no significant decrease in HPLC purity
  Polymorphic transition: no polymorphic transition
[4]; 60° C./sealed, 1 day
  Purity (%): 99.27%
  Water content (%): 1.1%
  Polymorphic transition or not: No
  Relative to the initial (%): 99.94%
[4]; Initial
  Purity (%): 99.33%
  Water content (%): 0.9%
[5]; 60° C./75% RH (open), 1 month
  Crystalline form: Crystalline form 3
[5]; 60° C./75% RH (open), 7 days
  Crystalline form: Crystalline form 3
[5]; 60° C./75% RH (open), 14 days
  Crystalline form: Crystalline form 3
[5]; 60° C./75% RH open, up to 1 month
  Polymorphic transition: no transition
[5]; Initial, 0 days
  Crystalline form: Crystalline form 3
